Experiments:
Granta-519 = experiment: Cytotoxicity against human Granta-519 cells assessed as reduction in cell viability incubated for 72 hrs by MTS assay; type: functional, cell-based; details: Granta-519, 72 h
[1] = target: T1, Protein cereblon/F-box-like/WD repeat-containing protein TBL1X (Homo sapiens) (UniProt Q96SW2+O60907); experiment: PROTAC activity at CRBN/TBL1X in human Ri-1 cells assessed as […] TBL1X level at 0.2 uM incubated for 6 hrs by Western blotting analysis (reference value: 1); type: cell-based
Pfeiffer = experiment: Cytotoxicity against human Pfeiffer cells assessed as reduction in cell viability incubated for 72 hrs by MTS assay; type: functional, cell-based
[2] = Cytotoxicity against human Ri-1 cells assessed as reduction in cell viability incubated for 72 hrs by MTS assay; type: functional, cell-based; details: Ri-1, 72 h
[3] = target: T1, Protein cereblon/F-box-like/WD repeat-containing protein TBL1X (Homo sapiens); experiment: PROTAC activity at CRBN/TBL1X in human Ri-1 cells assessed as […] TBL1X level at 5 uM incubated for 6 hrs by Western blotting analysis (reference value: 1); type: cell-based
[4] = target: T1, Protein cereblon/F-box-like/WD repeat-containing protein TBL1X (Homo sapiens); experiment: PROTAC activity at CRBN/TBL1X in human Ri-1 cells assessed as […] TBL1X level at 1 uM incubated for 6 hrs by Western blotting analysis (reference value: 1); type: cell-based
[5] = target: T1, Protein cereblon/F-box-like/WD repeat-containing protein TBL1X (Homo sapiens); experiment: PROTAC activity at CRBN/TBL1X in human Ri-1 cells assessed as […] TBL1X level at 0.04 uM incubated for 6 hrs by Western blotting analysis (reference value: 1); type: cell-based
[6] = target: T1, Protein cereblon/F-box-like/WD repeat-containing protein TBL1X (Homo sapiens); experiment: PROTAC activity at CRBN/TBL1X in human Ri-1 cells assessed as TBL1X level relative to control at 0.008 uM incubated for 6 hrs by Western blotting analysis (reference value: 1); type: cell-based
[7] = target: T1, Protein cereblon/F-box-like/WD repeat-containing protein TBL1X (Homo sapiens); experiment: PROTAC activity at CRBN/TBL1X in human Ri-1 cells assessed as decrease in TBL1X level incubated for 6 hrs by Western blotting analysis; type: cell-based; details: dose 0.008-5 µM
[8] = target: T1, Protein cereblon/F-box-like/WD repeat-containing protein TBL1X (Homo sapiens); experiment: PROTAC activity at CRBN/TBL1X in human Ri-1 cells assessed as […] TBL1X level at 0.2 uM incubated for 6 hrs in presence of MG-132 by Western blotting analysis (reference value: 1); type: cell-based
[9] = target: T1, Protein cereblon/F-box-like/WD repeat-containing protein TBL1X (Homo sapiens); experiment: PROTAC activity at CRBN/TBL1X in human Ri-1 cells assessed as […] TBL1X level at 0.2 uM incubated for 6 hrs in presence of pomalidomide by Western blotting analysis (reference value: 1); type: cell-based
[10] = target: T1, Protein cereblon/F-box-like/WD repeat-containing protein TBL1X (Homo sapiens); experiment: PROTAC activity at CRBN/TBL1X in human Ri-1 cells assessed as […] TBL1X level at 0.2 uM incubated for 6 hrs in presence of tega-vivint by Western blotting analysis (reference value: 1); type: cell-based

T1 sequence (O60907 whole entry, looked up): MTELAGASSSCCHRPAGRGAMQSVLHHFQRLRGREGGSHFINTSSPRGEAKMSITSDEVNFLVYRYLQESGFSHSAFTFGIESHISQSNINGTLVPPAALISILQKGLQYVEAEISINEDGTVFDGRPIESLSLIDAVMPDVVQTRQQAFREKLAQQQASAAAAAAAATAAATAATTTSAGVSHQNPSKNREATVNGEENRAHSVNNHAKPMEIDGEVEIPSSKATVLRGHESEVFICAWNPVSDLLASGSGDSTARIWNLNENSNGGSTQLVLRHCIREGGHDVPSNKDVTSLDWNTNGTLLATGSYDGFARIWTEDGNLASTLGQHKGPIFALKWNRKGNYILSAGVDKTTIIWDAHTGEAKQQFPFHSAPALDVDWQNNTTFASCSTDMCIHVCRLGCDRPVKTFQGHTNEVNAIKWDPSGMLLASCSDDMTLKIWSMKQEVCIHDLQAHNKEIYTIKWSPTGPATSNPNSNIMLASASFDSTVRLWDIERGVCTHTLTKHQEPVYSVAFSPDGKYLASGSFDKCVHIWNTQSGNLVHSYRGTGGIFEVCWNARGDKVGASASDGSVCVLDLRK
T1 sequence (Q96SW2 whole entry, looked up): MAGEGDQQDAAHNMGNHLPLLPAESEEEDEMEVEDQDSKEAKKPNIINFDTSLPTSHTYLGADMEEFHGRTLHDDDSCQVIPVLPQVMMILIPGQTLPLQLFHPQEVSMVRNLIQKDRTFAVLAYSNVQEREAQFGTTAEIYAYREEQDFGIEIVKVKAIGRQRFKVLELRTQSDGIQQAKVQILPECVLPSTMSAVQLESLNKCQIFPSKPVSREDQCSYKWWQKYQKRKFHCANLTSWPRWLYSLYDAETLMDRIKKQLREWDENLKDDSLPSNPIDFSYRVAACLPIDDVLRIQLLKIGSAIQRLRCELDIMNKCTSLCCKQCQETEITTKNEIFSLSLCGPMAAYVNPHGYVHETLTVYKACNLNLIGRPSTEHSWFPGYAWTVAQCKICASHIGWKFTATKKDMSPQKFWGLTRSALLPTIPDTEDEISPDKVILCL

fold change (FC) [1]	fold change (FC) [3]	fold change (FC) [4]	fold change (FC) [5]	fold change (FC) [6]	Activity [7]	fold change (FC) [8]	fold change (FC) [9]	fold change (FC) [10]	Compound	IC50 (Granta-519)	IC50 (Pfeiffer)	IC50 [2]
0.92	0.97	0.79	1.02	0.9	–	–	–	–	CC1CC(C)CN(S(=O)(=O)c2ccc3c(c2)/C(=N\O)c2cc(S(=O)(=O)N4CCN(C(=O)CCOCCOCCOCCNc5cccc6c5C(=O)N(C5CCC(=O)NC5=O)C6=O)CC4)ccc2/C3=N\O)C1 (configuration not stated)	> 20 µM	> 20 µM	> 20 µM
0.61	0.44	0.74	0.74	0.8	Dose-Dependent Effect	–	–	–	CC1CC(C)CN(S(=O)(=O)c2ccc3c(c2)C(=NO)c2cc(S(=O)(=O)N4CC(C)CC(C)C4)ccc2C3=NOCCCNC(=O)CCCCCCNc2cccc3c2C(=O)N(C2CCC(=O)NC2=O)C3=O)C1 (configuration not stated)	0.53 µM	0.355 µM	0.929 µM
0.99	1.08	0.92	1.04	0.98	–	–	–	–	CC1CC(C)CN(S(=O)(=O)c2ccc3c(c2)/C(=N/O)c2cc(S(=O)(=O)N4CCN(C(=O)CCCCCCCCCCNc5cccc6c5C(=O)N(C5CCC(=O)NC5=O)C6=O)CC4)ccc2/C3=N\O)C1 (configuration not stated)	1.16 µM	2.5 µM	1.16 µM
1.28	1.34	1.23	1.3	1	–	–	–	–	CC1CC(C)CN(S(=O)(=O)c2ccc3c(c2)/C(=N/O)c2cc(S(=O)(=O)N4CCN(C(=O)CCNc5cccc6c5C(=O)N(C5CCC(=O)NC5=O)C6=O)CC4)ccc2/C3=N\O)C1 (configuration not stated)	0.399 µM	0.565 µM	0.797 µM
1.16	1.51	1.36	1.03	0.91	–	–	–	–	CC1CC(C)CN(S(=O)(=O)c2ccc3c(c2)/C(=N/O)c2cc(S(=O)(=O)N4CCN(C(=O)CCCCCCNc5cccc6c5C(=O)N(C5CCC(=O)NC5=O)C6=O)CC4)ccc2/C3=N\O)C1 (configuration not stated)	0.439 µM	0.343 µM	0.605 µM
0.63	1.03	0.64	0.35	0.37	–	–	–	–	CC1CC(C)CN(S(=O)(=O)c2ccc3c(c2)C(=NO)c2cc(S(=O)(=O)N4CC(C)CC(C)C4)ccc2C3=NOCCCNC(=O)CCOCCOCCNc2cccc3c2C(=O)N(C2CCC(=O)NC2=O)C3=O)C1 (configuration not stated)	> 20 µM	1.88 µM	> 20 µM
0.46	0.58	0.59	0.49	0.6	–	–	–	–	CC1CC(C)CN(S(=O)(=O)c2ccc3c(c2)C(=NO)c2cc(S(=O)(=O)N4CC(C)CC(C)C4)ccc2C3=NOCCCNC(=O)CCOCCOCCOCCNc2cccc3c2C(=O)N(C2CCC(=O)NC2=O)C3=O)C1 (configuration not stated)	> 20 µM	> 20 µM	> 20 µM
0.41	0.54	0.5	0.56	0.97	Dose-Dependent Effect	–	–	–	CC1CC(C)CN(S(=O)(=O)c2ccc3c(c2)C(=NO)c2cc(S(=O)(=O)N4CC(C)CC(C)C4)ccc2C3=NOCCCNC(=O)CCNc2cccc3c2C(=O)N(C2CCC(=O)NC2=O)C3=O)C1 (configuration not stated)	0.323 µM	0.189 µM	0.651 µM
–	–	–	–	–	–	–	–	–	C[C@@H]1C[C@H](C)CN(S(=O)(=O)c2ccc3c(c2)C(=NO)c2cc(S(=O)(=O)N4C[C@H](C)C[C@H](C)C4)ccc2C3=NO)C1	0.0941 µM	0.175 µM	0.086 µM
0.44	0.43	0.18	0.43	0.64	Dose-Dependent Effect	–	–	–	CC1CC(C)CN(S(=O)(=O)c2ccc3c(c2)C(=NO)c2cc(S(=O)(=O)N4CC(C)CC(C)C4)ccc2C3=NOCCCNC(=O)CCCCCCCCCCNc2cccc3c2C(=O)N(C2CCC(=O)NC2=O)C3=O)C1 (configuration not stated)	> 20 µM	> 20 µM	> 20 µM
0.94	0.97	1.06	0.99	1.07	–	–	–	–	CC1CC(C)CN(S(=O)(=O)c2ccc3c(c2)/C(=N\O)c2cc(S(=O)(=O)N4CCN(C(=O)CCOCCOCCNc5cccc6c5C(=O)N(C5CCC(=O)NC5=O)C6=O)CC4)ccc2/C3=N\O)C1 (configuration not stated)	> 20 µM	> 20 µM	> 20 µM
0.51	0.48	0.43	0.47	0.4	–	–	–	–	CC1CC(C)CN(S(=O)(=O)c2ccc3c(c2)C(=NO)c2cc(S(=O)(=O)N4CC(C)CC(C)C4)ccc2C3=NOCCCNC(=O)CCOCCNc2cccc3c2C(=O)N(C2CCC(=O)NC2=O)C3=O)C1 (configuration not stated)	1.04 µM	0.554 µM	1.35 µM
0.53	1.46	0.61	0.27	0.4	Dose-Dependent Effect	0.92	0.82	0.87	CC1CC(C)CN(S(=O)(=O)c2ccc3c(c2)C(=NO)c2cc(S(=O)(=O)N4CC(C)CC(C)C4)ccc2C3=NOCCCNC(=O)CCCCNc2cccc3c2C(=O)N(C2CCC(=O)NC2=O)C3=O)C1 (configuration not stated)	0.523 µM	0.398 µM	0.795 µM
1.02	0.6	0.91	0.94	0.9	–	–	–	–	CC1CC(C)CN(S(=O)(=O)c2ccc3c(c2)/C(=N/O)c2cc(S(=O)(=O)N4CCN(C(=O)CCCCNc5cccc6c5C(=O)N(C5CCC(=O)NC5=O)C6=O)CC4)ccc2/C3=N\O)C1 (configuration not stated)	0.496 µM	0.647 µM	0.56 µM
1.59	0.79	1.15	1.11	0.91	–	–	–	–	CC1CC(C)CN(S(=O)(=O)c2ccc3c(c2)/C(=N/O)c2cc(S(=O)(=O)N4CCN(C(=O)CCOCCNc5cccc6c5C(=O)N(C5CCC(=O)NC5=O)C6=O)CC4)ccc2/C3=N\O)C1 (configuration not stated)	> 20 µM	> 20 µM	> 20 µM

Source: ChEMBL document CHEMBL6071187, “Design, Synthesis, and Biological Evaluation of Selective TBL1X Degraders” (ACS Med Chem Lett, 2024)
